Measured values as given in patent publication US20190151307A1 (priority 2017, published 2019).

Key:
clinical = type: in vivo, human; conditions: single dose BIC 75 mg, fed, RIF 600 mg
Procedure: This was a Phase 1, open-label, multiple-dose, multiple-cohort, adaptive design study in healthy adult subjects.
The duration of dosing was 9 days (with a 3-day washout between the first and second doses of study treatment). The study duration (not including screening) was approximately 21 days. The study had n=15 subjects.
In addition, the following multiple-dose plasma PK parameters of GS-9883 were calculated, as applicable: Ctau, Cmax, Clast, AUCtau, Tmax, Tlast, t1/2, and CL/F.
Serial blood samples for intensive PK sampling were collected at the following time points relative to the morning dose of study drug(s) administered: 0 (pre-dose) and 0.5, 1, 1.5, 2, 3, 4, 6, 8, 10, 12, 16, 24, 36, 48, 72, and 96 hours post-dose on Days 1 and 15. Daily pre-dose PK sampling was collected at days 10 and 14.
The ANOVA model included treatment as a fixed effect and subject as a random effect.

[1] = Phase 1 study: steady-state plasma PK of TAF and TFV after B/F/TAF BID with rifampin vs B/F/TAF QD alone; type: in vivo, human; conditions: BID TAF administration (B/F/TAF BID+RIF), compared to prior PK results of TDF-containing regimens, FIG. 2
Procedure: This study evaluated the steady state pharmacokinetics of TAF, TAF metabolite TFV, and emtricitabine (FTC) following coadministration of bictegravir/emtricitabine/tenofovir alafenamide (B/F/TAF) fixed dose combination (FDC) twice daily with rifampin 600 mg once daily compared to those of B/F/TAF FDC once daily administered alone.
In this Phase 1, open-label, parallel multiple dose study, healthy volunteers were assigned to one of two cohorts (cohort 1 (n=26) or cohort 2 (n=26)) and received study treatments beginning on day 1 and continuing for 28 days (cohort 1) or 35 days (cohort 2).
The duration of the study was approximately 57 days for cohort 1 and approximately 44 days for cohort 2. […]
Pharmacokinetic assessments of plasma PK and PBMC PK were evaluated. […] PK parameters of TFV-DP and FTC-TP in PBMCs were calculated as applicable and included AUCtau, Ctrough, Cmax, accumulation ratios, and t1/2 with and without RIF. […]
Plasma concentrations of TAF and TFV were determined and pharmacokinetics were evaluated as applicable.
Plasma concentrations were determined using validated liquid chromatography-tandem mass spectrometry (LC/MS/MS) assays. Intracellular PBMC TFV-DP concentrations were determined via a validated LC/MS/MS assay combined with PBMC cell counting via a DNA quantitation procedure. […]

HIV = conditions: cited from earlier work
[2] = intracellular TFV-DP with TDF; cited from earlier work
[3] = peripheral blood mononuclear cells (PBMC) isolated from patients; cited from earlier work

With `O=C(NCc1c(F)cc(F)cc1F)c1cn2c(c(O)c1=O)C(=O)N1[C@H]3CC[C@H](C3)O[C@@H]1C2` [BIC] as the compound, how does the half-life (clinical; human, in vivo, BIC t1/2, plasma, median per text) read?
The half-life was roughly 1090 min.

What about the “BIC % AUCexp, Mean (% CV)” value (clinical; plasma) of the same compound?
Its value is 3.1%.

What about the “BIC CL/F, Mean (% CV)” value (clinical; plasma) of the same compound?
The value was 545.1 mL/h.

And the “BIC Clast, Mean (% CV)” value (clinical; plasma)?
Its value is 192.7 ng/mL.

And the “BIC Tlast” value (clinical; plasma)?
The value was 95.93 h.

For `CC(C)OC(=O)[C@H](C)N[P@](=O)(CO[C@H](C)Cn1cnc2c(N)ncnc21)Oc1ccccc1` [TAF, 9-[(R)-2-[[(S)-[[(S)-1-(isopropoxycarbonyl)ethyl]amino]phenoxyphosphinyl]-methoxy]propyl]adenine], which “total overall systemic TFV plasma exposure over 24 hours vs TDF-containing regimens” value [1] is on record?
The value was “markedly lower”.

What about the “enhancement in anti-HIV activity in cell culture of TAF over TFV” value (HIV) of the same compound?
The value was 600 fold.

Which “historical steady-state TFV-DP threshold effectiveness concentration” value [2] does the source give for `CC(C)OC(=O)OCOP(=O)(CO[C@H](C)Cn1cnc2c(N)ncnc21)OCOC(=O)OC(C)C` [TDF, 9-[(R)-2-[[bis[[(isopropoxycarbonyl)oxy]methoxy]phosphinyl]methoxy]propyl]adenine] here?
The value was 85-222 fmol/10^6 cells.

For `C[C@@H](Cn1cnc2c(N)ncnc21)OCP(=O)(O)OP(=O)(O)OP(=O)(O)O` [TFV-DP], which intracellular half-life [3] is on record?
The intracellular half-life was 150 h.
